This note sets out measurements from ChEMBL document CHEMBL1151597, “THE ROLE OF ARGININE IN THE BINDING OF LTD4 ANTAGONISTS TO cysLT1 RECEPTORS OF GUINEA PIG LUNG” (Bioorg Med Chem Lett, 1997).

For the assay, the target named is T1, Cysteinyl leukotriene receptor 1 (Cavia porcellus, UniProt Q2NNR5).
T1 sequence (Q2NNR5 whole entry): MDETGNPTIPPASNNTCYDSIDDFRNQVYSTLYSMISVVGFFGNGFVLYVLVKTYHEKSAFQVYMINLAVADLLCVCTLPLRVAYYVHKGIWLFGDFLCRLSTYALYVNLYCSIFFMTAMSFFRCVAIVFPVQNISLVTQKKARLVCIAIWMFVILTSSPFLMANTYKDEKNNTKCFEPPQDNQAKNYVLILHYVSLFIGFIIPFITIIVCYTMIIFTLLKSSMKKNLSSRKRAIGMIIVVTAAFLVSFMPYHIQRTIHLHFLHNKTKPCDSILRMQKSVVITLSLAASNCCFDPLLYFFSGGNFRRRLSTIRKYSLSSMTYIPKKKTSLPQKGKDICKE
Briefly: Dissociation constant for CysLT1 receptor was determined by the displacement of [3H]LTD4 from guinea pig lung membranes. It is filed as tissue-based, Membrane. Background: Loss of bound radioactivity is the signal in a displacement assay; it reports binding, not function.

Take `COc1cc(C(=O)NS(=O)(=O)c2ccccc2)ccc1Cn1ncc2ccc(NC(=O)OC3CCCC3)cc21` [ICI-198615]: the Kd amounted to 0.0000301 M l-1.
